From US20250189527A1, “COMPOSITIONS AND METHODS FOR DETECTING, PREDICTING RISK OF DEVELOPING, AND TREATING LEPTOMENINGEAL DISEASE” (Duke University, priority 2022, published 2025)

B1: Recombinant GDNF: recombinant human/mouse glial cell line-derived neurotrophic factor (PeproTech) (protein, UniProt P39905 78-211, looked up)
Glial cell line-derived …: SPDKQMAVLPRRERNRQAAAANPENSRGKGRRGQRGKNRGCVLTAIHLNVTDLGLGYETKEELIFRYCSGSCDAAETTYDKILKNLSRNRRLVSDKVGQACCRPIAFDDDLSFLDDNLVYHILRKHSAKRCGCI

What was measured:
CSF1R+ cells [1] = experiment: Depletion of CSF1R+ cells in CSF1R-GFP reporter mice fed PLX5622 chow (whole mount and intravital imaging); assay type: in vivo, mouse; conditions: 1200 mg kg^−1 in AIN-76A rodent chow for three days; brain parenchyma and LM
Protocol: FIG. 16A-E: Meningeal macrophages co-localize with EO-LM2 cells and are depleted with the CSF1R inhibitor, PLX5622. a, Confocal intravital microscopy (IVM) of the brain leptomeninges (LM) showing tdTomato+EO-LM2 cells co-localizing with CSF1R+ myeloid cells in the perivascular space of LM vessels (white). Scale bar=[…]. b, Representative whole mount (brain parenchyma) and IVM (LM) images of CSF1R-GFP reporter mice treated with either control or PLX5622 (1200 mg kg^−1) formulated AIN-76A rodent chow for three days. CSF1R+ cells=green. Vessels=white. c, Quantification of the number of CSF1R+ cells per imaging field of view of mice in (b). Three 10× field of view images acquired per mouse. Unpaired, two-sided Student's t-test. n=3 mice per group. ***P=0.0001. ****P<0.0001. s.e.m. d, Dosing Strategy for experiment in FIG. 11k,l. e, Dosing strategy for experiment in FIG. 11m,n.
PLX5622 (ChemGood) was formulated into AIN-76A rodent chow at 1200 mg kg^−1 by Research Diets Inc. Formulated chow was irradiated prior to administration. CSF1R-GFP (MacGreen) mice were given AIN-76A±PLX5622 for three days prior to engraftment and continued to feed on formulated or control chow for the duration of the study. […]
(§1) Intravital and whole mount images were imported into ImageJ for quantification. […] Tissue bordered were then traced and the mean tdT signal was measured over total tissue area.

EO-LM2 cells [2] = experiment: Time to LMD progression (HLP score of 0.5) in EO-LM2-engrafted mice, vehicle vs. PLX5622; assay type: in vivo, mouse; conditions: PLX5622 chow 1200 mg kg^−1 from three days prior to engraftment, P=0.0002
Source text: (§2) FIG. 11A-Q: Meningeal macrophages promote BCC survival through GDNF/NCAM signaling. a, Volcano plot of differentially expressed genes in EO-LM2 vs. −P cells. b, Ncam1 mean fluorescence intensity (MFI) by flow cytometry. n=3 biological replicates. Two-sided, unpaired Student's t-test. c, Representative intravital microscopy (IVM) and quantification of EO-LM2 vs. −NCAM1KO cells in the LM of mice on day 3 post-engraftment. n=3 mice. Two-sided, unpaired Student's t-test. d, Hindlimb paralysis (HLP) incidence and representative brain section H&E of paired EO-LM2 vs. −NCAM1KO mice euthanized when either reached a clinical endpoint (EP). n=5 mice. […] Arrows=CSFIR+ cells (green). n=3 mice; n=18-43 cells quantified/mouse. […] Arrowheads=tdT+1833 cells. i, Flow cytometry quantification of GDNF expression in cells isolated from meninges of EO-LM2 mice. n=3 biological replicates. […] Two-sided, unpaired Student's t-test. m, Representative 3D IVM images of EO-LM2 cells (red, arrowheads) co-localizing with CSF1R+ cells (green) surrounding LM vessels (white) in veh. vs. PLX5622-treated mice on day 3 or 10 post-engraftment. n, Quantification of EO-LM2 and CSF1R co-localizing (co-loc.) or non-co-localizing (no-coloc.) cells in the LM of mice in (m). n−3 mice. […]

GDNF = GDNF immunofluorescence on meninges cytospins from EO-LM2-engrafted CSF1R-GFP mice; assay type: in vivo, mouse; conditions: meninges cytospin at endpoint, veh. vs. PLX5622-treated EO-LM2 mice; P=0.0232
Source text: The mouse meninges were isolated as described by Louveau et al (Louveau, A., Filiano, A. J. & Kipnis, J. Meningeal whole mount preparation and characterization of neural cells by flow cytometry. Current protocols in immunology 121, e50-e50 (2018)). Briefly, the skull cap was removed and placed in a cold PBS bath under a dissecting microscope. Using fine forceps, the meninges were carefully peeled off the skull. Any remaining meninges on the brain surface were carefully removed with fine forceps while limiting the removal of residual brain parenchyma. The meninges were digested for 45 min at 37° C. in digest buffer (1×HBSS with calcium and magnesium (Corning), 5% FBS, 10 mM HEPES, DNase (Sigma Aldrich, 20 U mL^−1), Liberase DL (Sigma Aldrich, 10 mg mL^−1), Liberase TL (Sigma Aldrich, 10 mg mL^−1)) and lightly shaken every 10 min. The digested solution was then passed through a 70-μm cell strainer and a rubber syringe pump was used to gently push through any undigested tissue. […]
Glass 96-well plates were coated with 100 μL of poly-D-lysine (Sigma Aldrich, 0.1 mg mL^−1) in water at room temperature for 1 h and then washed three times with sterile PBS and allowed to air dry for 15 min in a tissue culture hood. […] ImageJ was used to quantify raw integrated pixel density per cell.

EO-LM2 cells [3] = experiment: Intravital microscopy of EO-LM2 cells in the LM of vehicle vs. PLX5622-treated mice; assay type: in vivo, mouse
Protocol: PLX5622 (ChemGood) was formulated into AIN-76A rodent chow at 1200 mg kg^−1 by Research Diets Inc. Formulated chow was irradiated prior to administration. CSF1R-GFP (MacGreen) mice were given AIN-76A±PLX5622 for three days prior to engraftment and continued to feed on formulated or control chow for the duration of the study.
Mice were anaesthetized using isoflurane and the cortical bone was exposed following a sagittal incision in the scalp. The head of the mouse was secured using a stereotactic apparatus. A micromotor high-speed drill (Stoelting) with a carbide 0.75-mm drill bit (Stoelting) was used to thin the skull immediately to the left of the sagittal suture and centered between the coronal suture and the lambdoid suture. The skull-thinned region was circular and approximately 1 mm in diameter and the thinning continued until the meningeal vessels were visible under a dissecting microscope and the remaining bone was about 50 μm thin. PBS was used to clean the surgical site and dissipate heat every 15 sec. High-resolution images of the leptomeninges were obtained through the skull thinned window using a Leica SP8 confocal and multiphoton microscope with a 25× water immersion lens. […]
as §1

CSF1R+ cells [4] = conditions: systemic (non-CNS) populations; cited from earlier work
1833 cells = experiment: GDNF glucose starvation assay, 1833 cells; assay type: cell-based, human; conditions: glucose free media+1% FBS, GDNF 100 ng mL^−1, 48 h, P=0.0203 vs. vehicle/isotype
Protocol: (§3) 1×10^5 1833 or EO-LM2 cells were seeded in glucose free or complete media+1% FBS in a 12-well plate. The cells were treated with recombinant human/mouse GDNF (PeproTech, 100 ng mL^−1) or vehicle (0.1% BSA in water) and anti-CD49f neutralizing antibody (Invitrogen, 2.5 μg mL^−1) or isotype control. The cells were incubated at 37° C. and 5% CO2 for 24 h (EO-LM2) or 48 h (1833) and then trypsinized and counted with a hemacytometer. The number of live cells in the glucose deprived conditions were then divided by the number of cells in the glucose complete condition to determine the percent of cells alive after glucose deprivation.

EO-LM2 cells [5] = experiment: GDNF glucose starvation assay, EO-LM2 cells; assay type: cell-based, mouse; conditions: glucose free media+1% FBS, GDNF 100 ng mL^−1, 24 h, P=0.0120 vs. vehicle/isotype
Protocol: as §3

EO-LM2 cells [6] = experiment: Intracerebroventricular (ICV) GDNF rescue experiment in tumored, CSF1R-depleted mice; assay type: in vivo, mouse; conditions: intraventricular GDNF vs. veh. ICV in PLX5622-treated tumored mice; P=0.0002
Source text: as §2

| Molecule | depletion of CSF1R+ cells from the CNS (CSF1R+ cells [1]) | time to LMD progression (time to HLP score of 0.5) (EO-LM2 cells [2]) | LM cells expressing GDNF (GDNF) | initial BCC invasion of the LM (EO-LM2 cells [3]; day 3 post-engraftment, veh. vs. PLX5622) | subsequent BCC expansion within the LM (EO-LM2 cells [3]; day 10 post-engraftment, veh. vs. PLX5622, P<0.0001) | effects on systemic CSF1R+ populations (CSF1R+ cells [4]) | protection from cell death in low glucose conditions (percent live cells after glucose deprivation) (1833 cells) | protection from cell death in low glucose conditions (percent live cells after glucose deprivation) (EO-LM2 cells [5]) | LMD progression (time to HLP score of 0.5) (EO-LM2 cells [6]) |
| --- | --- | --- | --- | --- | --- | --- | --- | --- | --- |
| COc1ncc(F)cc1CNc1ccc(Cc2c[nH]c3ncc(C)cc23)c(F)n1 [PLX5622] | dramatically depletes | substantially prolonged | dramatic decrease | did not affect | did prevent | modest effects | – | – | – |
| B1 | – | – | – | – | – | – | marked protection from cell death | marked protection from cell death | accelerated LMD progression |
